Results taken from US7737166B2, “Antifungal bicyclic hetero ring compounds” (Daiichi Sankyo Company, Limited, priority 2005, dated 2010).
In brackets after ≈: the same amount, converted by molar mass. One block for each molecule: values may come before it.

Key:
C. albicans ATCC MYA-573 = assay: Antifungal activity (GI80), growth inhibition in YPD20 medium by absorbance at 600 nm; assay type: cell-based; conditions: minimum concentration for at least 80% cell growth inhibition, 37° C., absorbance 600 nm; for IC80: Candida albicans, read-out: GI80 (μg/ml) C. albicans ATCC MYA-573
Experimental: (§1) The antifungal activity of the compounds of the invention was determined according to the method mentioned below.
(§2) An YPD20 medium (1% yeast extract, 2% peptone, 20% glucose) was used,
(§3) (2) Preparation of Cell Liquid for Inoculation:
(§4) Cells incubated overnight with Sabouraud dextrose agar at 30° C. were suspended in 0.1% Tween 80-added saline, and then added to a concentrated medium (1.33% yeast extract, 2.67% peptone, 13.33% glucose) so that the final cell concentration could be 5×10^3 cells/ml, thereby preparing a cell liquid for inoculation.
(§5) (3) Production of Chemical Dilution Plate:
(§6) A metered sample was dissolved in dimethyl sulfoxide, and a 2-fold dilution series was prepared using dimethyl sulfoxide. A chemical dilution of 2 μl each was added to a flat-bottom 96-well plate with 40% glucose (48 μl) put in each well, thereby producing a chemical dilution plate.
(§7) (4) Inoculation and Cultivation of Cell Liquid:
(§8) The cell liquid (150 μl) prepared in (2) was added to the chemical dilution plate produced in (3), followed by aerobic static cultivation at 37° C.
(§9) (5) Determination of Antifungal Activity (GI80 Value):
(§10) After cultivation for […], the plate was stirred, and its absorbance (600 nm) was measured. Based on the absorbance as the index, the minimum chemical concentration for at least 80% cell growth inhibition relative to the cell growth in the chemical-free well was computed as a GI80 value.

C. albicans ATCC90028 = assay: as above; assay type: cell-based; conditions: 37° C., absorbance 600 nm; for IC80: Candida albicans, ATCC90028, minimum concentration for at least 80% cell growth inhibition, read-out: GI80 (μg/ml) C. albicans ATCC90028
Experimental: as §1, §2, §3, §4, §5, §6, §7, §8, §9, §10

C. glabrata ATCC48435 = assay: as above; assay type: cell-based; conditions: 37° C., absorbance 600 nm; for IC80: Nakaseomyces glabratus, ATCC48435, minimum concentration for at least 80% cell growth inhibition, read-out: GI80 (μg/ml) C. glabrata ATCC48435
Experimental: as §1, §2, §3, §4, §5, §6, §7, §8, §9, §10

[1] = minimum concentration for at least 80% cell growth inhibition

melting point: 170 to 173 °C
SMILES: Cc1cc2c(c(N3CC[C@H](N(C)C)C3)c1-c1ccccc1)OC(C#N)(C(=O)N1CCCCC1)N2 (stereo partly drawn) [Example 43, 7-[(3S)-3-(dimethylamino)pyrrolidin-1-yl]-5-methyl-6-phenyl-2-(piperidin-1-ylcarbonyl)-1,3-benzoxazole-2-carbonitrile]

melting point: 209 to 211 °C
SMILES: CCN[C@H]1CCN(c2c(-c3ccccc3)c(C)c(C#N)c3nc(C4CC4)oc23)C1 [Example 138, 2-Cyclopropyl-7-[(3S)-3-(ethylamino)pyrrolidin-1-yl]-5-methyl-6-phenyl-1,3-benzoxazole-4-carbonitrile]

melting point: 104 to 107 °C
SMILES: Cc1c(-c2cccc(CF)c2)c(N2CC[C@H](N(C)C)C2)c2oc(C3CC3)nc2c1C#N [Example 144-10, 2-Cyclopropyl-7-[(3S)-3-(dimethylamino)pyrrolidin-1-yl]-6-[3-(fluoromethyl)phenyl]-5-methyl-1,3-benzoxazole-4-carbonitrile]

melting point: 214 to 222 °C
SMILES: Cc1c(-c2ccccc2)c(N2CC[C@H](N(C)C)C2)c2oc(-c3cnn(C)c3)nc2c1C#N [Example 74, 7-[(3S)-3-(Dimethylamino)pyrrolidin-1-yl]-5-methyl-2-(1-methyl-1H-pyrazol-4-yl)-6-phenyl-1,3-benzoxazole-4-carbonitrile]

melting point: 157 to 159 °C
SMILES: Cc1c(-c2cnccn2)c(N2CC[C@H](N(C)C)C2)c2oc(C3CC3)nc2c1C#N [Example 21, 2-Cyclopropyl-7-[(3S)-3-(dimethylamino)pyrrolidin-1-yl]-5-methyl-6-(pyrazin-2-yl)-1,3-benzoxazole-4-carbonitrile]

melting point: 67 to 70 °C
SMILES: Cc1c(-c2ccccc2)c(N2CC[C@@H](N(C)C)C2)c2oc(C(=O)N(C)C)nc2c1C#N [Example 40-2, 4-Cyano-N,N,5-trimethyl-7-[(3R)-3-(dimethylamino)pyrrolidin-1-yl]-6-phenyl-1,3-benzoxazole-2-carboxamide]

melting point: 144 to 146 °C
SMILES: Cc1c(-c2ccccc2)c(C2=CC(N(C)C)CC2)c2oc(C3CC3)nc2c1C#N (stereo not shown) [Example 8, 2-Cyclopropyl-7-(3-dimethylaminocyclopent-1-en-1-yl)-5-methyl-6-phenyl-1,3-benzoxazole-4-carbonitrile]

melting point: 211 to 212 °C
SMILES: Cc1c(-c2ccccc2)c(N2CC(N(C)C)C2)c2oc(C(C)(C)C)nc2c1C#N [Example 15, 2-Tert-butyl-5-methyl-7-(3-dimethylaminoazetidin-1-yl)-6-phenyl-1,3-benzoxazole-4-carbonitrile]

melting point: 138 to 141 °C
SMILES: Cc1c(-c2ccccc2)c(N2CC[C@H](N(C)C)C2)c2oc(C(=O)N(C)CCc3ccccc3)nc2c1C#N [Example 46, 4-Cyano-7-[(3S)-3-(dimethylamino)pyrrolidin-1-yl]-N,5-dimethyl-6-phenyl-N-(2-phenylethyl)-1,3-benzoxazole-2-carboxamide]

melting point: 219 to 221 °C
SMILES: Cc1c(-c2ccccc2)c(N2CC[C@H](N(C)C)C2)c2oc(N3CC(O)C3)nc2c1C#N [Example 65, 7-[(3S)-3-(Dimethylamino)pyrrolidin-1-yl]-2-(3-hydroxyazetidin-1-yl)-5-methyl-6-phenyl-1,3-benzoxazole-4-carbonitrile]

melting point: 259 to 263 °C
SMILES: Cc1c(-c2ccccc2)c(N2CC[C@H](N(C)C)C2)c2oc(-c3ccccc3N)nc2c1C#N [Example 109, 2-(2-Aminophenyl)7-[(3S)-3-(dimethylamino)pyrrolidin-1-yl]-5-methyl-6-phenyl-1,3-benzoxazole-4-carbonitrile]

SMILES: Cc1c(-c2ccccc2)c(N2CC[C@H](N(C)C)C2)c2oc(N(C)C(C)(C)C)nc2c1C#N [Example 62, 2-(N-tert-Butyl-N-methylamino)-7-[(3S)-3-(dimethylamino)pyrrolidin-1-yl]-5-methyl-6-phenyl-1,3-benzoxazole-4-carbonitrile]
IC80 (C. albicans ATCC MYA-573): 0.063 µg/mL (≈ 0.146 µM) | IC80 (C. albicans ATCC90028): 0.063 µg/mL (≈ 0.146 µM) | IC80 (C. glabrata ATCC48435): 0.032 µg/mL (≈ 0.0741 µM)

SMILES: Cc1c(-c2ccccc2)c(N2CC[C@H](N(C)C)C2)c2oc(C(=O)N(C)CCO)nc2c1C#N [Example 49, 4-Cyano-7-[(3S)-3-(dimethylamino)pyrrolidin-1-yl]N-(2-hydroxyethyl)-N,5-dimethyl-6-phenyl-1,3-benzoxazole-2-carboxamide]
IC80 (C. albicans ATCC MYA-573): 0.5 µg/mL (≈ 1.12 µM) | IC80 (C. albicans ATCC90028): 0.5 µg/mL (≈ 1.12 µM) | IC80 (C. glabrata ATCC48435): 0.063 µg/mL (≈ 0.141 µM)

SMILES: Cc1c(-c2ccccc2)c(N2CC[C@H](N(C)C)C2)c2oc(-c3nccs3)nc2c1C#N [Example 93, 7-[(3S)-3-(Dimethylamino)pyrrolidin-1-yl]-5-methyl-6-phenyl-2-(1,3-thiazol-2-yl)-1,3-benzoxazole-4-carbonitrile]
IC80 (C. albicans ATCC MYA-573): 0.125 µg/mL (≈ 0.291 µM) | IC80 (C. albicans ATCC90028): 0.125 µg/mL (≈ 0.291 µM) | IC80 (C. glabrata ATCC48435): 0.032 µg/mL (≈ 0.0745 µM)

SMILES: Cc1c(-c2cccc(F)c2F)c(N2CC[C@H](N(C)C)C2)c2oc(C3CC3)nc2c1C#N [Example 83, 2-Cyclopropyl-6-(2,3-difluorophenyl)-7-[(3S)-3-(dimethylamino)pyrrolidin-1-yl]-5-methyl-1,3-benzoxazole-4-carbonitrile]
IC80 (C. albicans ATCC MYA-573): 0.5 µg/mL (≈ 1.18 µM) | IC80 (C. albicans ATCC90028): 0.5 µg/mL (≈ 1.18 µM) | IC80 (C. glabrata ATCC48435): 0.125 µg/mL (≈ 0.296 µM)

melting point: 168 to 170 °C (dec.)
SMILES: Cc1c(-c2ccccc2)c(N2CC[C@H](N(C)C)C2)c2oc(C(C)C)nc2c1C#N.Cl

melting point: 145 to 148 °C
SMILES: CN[C@@H]1CCN(c2c(-c3ccccc3)c(C)c(C#N)c3nc(C(=O)N(C)C)oc23)C1 [Example 40-3, 4-Cyano-N,N,5-trimethyl-7-[(3R)-3-(methylamino)pyrrolidin-1-yl]-6-phenyl-1,3-benzoxazole-2-carboxamide]

melting point: 125 to 128 °C
SMILES: Cc1c(-c2ccccc2)c(N2CC[C@H](N(C)C)C2)c2oc(N3CC(CC(=O)O)C3)nc2c1C#N

melting point: 172 to 174 °C
SMILES: Cc1c(-c2ccccc2)c(C2=CCNC2)c2oc(C3CC3)nc2c1C#N [Example 153, 2-Cyclopropyl-7-(2,5-dihydro-1H-pyrrol-3-yl)-5-methyl-6-phenyl-1,3-benzoxazole-4-carbonitrile]

SMILES: Cc1c(-c2ccccc2)c(N2CC[C@H](N(C)C)C2)c2oc(C(C)(C)COCc3ccccc3)nc2c1C#N [Example 13, 2-[2-(Benzyloxy)-1,1-dimethylethyl]-7-[(3S)-3-(dimethylamino)pyrrolidin-1-yl]-5-methyl-6-phenyl-1,3-benzoxazole-4-carbonitrile]
IC80 (C. albicans ATCC MYA-573): 0.125 µg/mL (≈ 0.246 µM) | IC80 (C. albicans ATCC90028): 0.063 µg/mL (≈ 0.124 µM) | IC80 (C. glabrata ATCC48435): 0.032 µg/mL (≈ 0.0629 µM)

SMILES: Cc1c(-c2ccsc2)c(N2CC[C@H](N(C)C)C2)c2oc(C3CC3)nc2c1C#N [Example 144-1, 2-Cyclopropyl-7-[(3S)-3-(dimethylamino)pyrrolidin-1-yl]-5-methyl-6-(thiophen-3-yl)-1,3-benzoxazole-4-carbonitrile]
IC80 (C. albicans ATCC MYA-573): 0.25 µg/mL (≈ 0.637 µM) | IC80 (C. albicans ATCC90028): 0.25 µg/mL (≈ 0.637 µM) | IC80 (C. glabrata ATCC48435): 0.032 µg/mL (≈ 0.0815 µM)

melting point: 178 to 180 °C
SMILES: CN[C@@]1(C)CCN(c2c(-c3cccc(F)c3)c(C)c(C#N)c3nc(C(=O)N(C)C)oc23)C1 [Example 157, 4-Cyano-6-(3-fluorophenyl)-N,N,5-trimethyl-7-[(3S)-3-methyl-3-(methylamino)pyrrolidin-1-yl]-1,3-benzoxazole-2-carboxamide]

melting point: 158 to 159 °C
SMILES: Cc1c(-c2ccco2)c(N2CC[C@H](N(C)C)C2)c2oc(C3CC3)nc2c1C#N [Example 18, 2-Cyclopropyl-7-[(3S)-3-(dimethylamino)pyrrolidin-1-yl]-6-(2-furyl)-5-methyl-1,3-benzoxazole-4-carbonitrile]

melting point: 142 °C
SMILES: CC(=O)c1c(C)c(C#N)c2nc(C3CC3)oc2c1N1CC[C@H](N(C)C)C1 [Example 26, 6-Acetyl-2-cyclopropyl-7-[(3S)-3-(dimethylamino)pyrrolidin-1-yl]-5-methyl-1,3-benzoxazole-4-carbonitrile]

SMILES: Cc1c(-c2cc(F)ccc2F)c(N2CC[C@H](N(C)C)C2)c2oc(C3CC3)nc2c1C#N [Example 144-5, 2-Cyclopropyl-6-(2,5-difluorophenyl)-7-[(3S)-3-(dimethylamino)pyrrolidin-1-yl]-5-methyl-1,3-benzoxazole-4-carbonitrile]
IC80 (C. albicans ATCC MYA-573): 0.25 µg/mL (≈ 0.592 µM) | IC80 (C. albicans ATCC90028): 0.125 µg/mL (≈ 0.296 µM) | IC80 (C. glabrata ATCC48435): 0.032 µg/mL (≈ 0.0757 µM)

melting point: 114 to 116 °C
SMILES: Cc1c(-c2ccccc2)c(C2=CC(N(C)C)CC2)c2oc(C(C)(C)C)nc2c1C#N (stereo not shown) [Example 3, 2-tert-Butyl-7-[3-(dimethylamino)cyclopent-1-en-1-yl]-5-methyl-6-phenyl-1,3-benzoxazole-4-carbonitrile]

SMILES: CC(=O)N(C)c1nc2c(C#N)c(C)c(-c3ccccc3)c(N3CC[C@H](N(C)C)C3)c2o1 [Example 54, N-{4-Cyano-7-[(3S)-3-(dimethylamino)pyrrolidin-1-yl]-5-methyl-6-phenyl-1,3-benzoxazol-2-yl}-N-methylacetamide]
IC80 (C. albicans ATCC MYA-573): 0.25 µg/mL (≈ 0.599 µM) | IC80 (C. albicans ATCC90028): 0.125 µg/mL (≈ 0.299 µM) | IC80 (C. glabrata ATCC48435): 0.063 µg/mL (≈ 0.151 µM)

SMILES: Cc1c(-c2ccccc2)c(N2CC[C@H](N(C)C)C2)c2oc(N3CCCC3=O)nc2c1C#N [Example 129]
GI80 (μg/ml) C. albicans ATCC MYA-573 (C. albicans ATCC MYA-573): 0.5 µg/mL (≈ 1.16 µM) | GI80 (μg/ml) C. albicans ATCC90028 (C. albicans ATCC90028; [1]): 0.25 µg/mL (≈ 0.582 µM) | GI80 (μg/ml) C. glabrata ATCC48435 (C. glabrata ATCC48435; [1]): 0.063 µg/mL (≈ 0.147 µM)
